Measured values from patent publication US12233087B2, “Palladium hyaluronic acid particles and methods of managing cancer or angiogenic conditions” (Emory University, priority 2018, dated 2025).
Like-named read-outs stand apart in the source and are kept apart here.

Columns and labels:
[1] = at 25° C.; cited from earlier work
IGF1R = assay: Immunohistochemistry of tumor xenografts for IGF1R; assay type: in vivo, human; details: IHC, LM36R xenograft
Description: Immunohistochemistry was performed to qualitatively assess expression of target genes. […] To assess the impact of our treatments on IGF1R expression, IHC was used to stain the tumor xenografts with antibodies against IGF1R.

LM36R xenograft tumor = assay: Gene array / whole-transcriptome expression analysis of treated tumors; assay type: in vivo, human
Description: Gene array was performed on all tumors. […] By varying the delivery process of a single drug, one might be able to prevent resistance.
RNA Extraction and QC: RNA was extracted using the Qiagen miRNEasy™ kit with on column DNAse treatment. Tissue was lysed and homogenized in Qiazol™ with a rotor-stator probe homogenizer for 40 seconds or until fully disrupted (1 ml Qiazol™ per 100 mg of tissue). RNA was eluted in 50 ul nuclease free water. One microliter was used to determine OD (optical density) values on a Nanodrop 1000. One microliter was used to assess sample profiles on the Agilent 2100 using the RNA 6000 Nano assay. Total RNA (250 ng) was amplified and labeled using the ThermoFisher Scientific Illuina™ TotalPrep™ RNA Amplification kit. Labeled cRNA was hybridized to Illumina HT12™ bead array. Image acquisition and data extraction were performed.

[2] = Dispersion of free vs HANP-loaded Tris DBA-Pd in water, FBS and cell culture media; assay type: physicochemical
Description: Hyaluronic Acid (HA)-5β-cholanic acid conjugate was synthesized by linking the carboxyl group of HA with the amino group on 5β-cholanic acid in the presence of EDC and NHS (FIG. 1). Hyaluronic Acid nanoparticles/Tris-DBA palladium were prepared. Water-insoluble Tris DBA-Pd was physically encapsulated into the hydrophobic cavities by a high-pressure homogenizer. This allowed for the dispersion of Tris DBA-Pd under physiological conditions. After freeze-drying, 40 mg of HANPs were dispersed in 8 mL of distilled water and 10 mg of Tris DBA-Pd was dissolved in 2 mL dimethyl sulfoxide (DMSO). The Tris DBA-Pd solution was slowly added into the HANP in high pressure homogenizer and homogenized for 5 min. Finally, the resulting mixture was dialyzed for 4 hours against an excess amount of distilled water to remove unloaded drugs and organic solvent, followed by lyophilization.
To verify the encapsulation of Tris DBA-Pd, the size changes were compared before and after loading.

[3] = tested on: LM36R human melanoma cells; assay: LM36R vemurafenib-resistant melanoma xenograft tumor growth in nude mice; assay type: in vivo, athymic Nu/Nu nude male mice; details: 5 mg of drug/kg per injection, bi-weekly tail vein injections, 4 weeks, n=5 per group; p-value 0.048 at week 4
Description: Nude male mice were inoculated with LM36R (5.0×10^5 cells), a human cell line of melanoma that is resistant to vemurafenib, and then treated with HANPs over the course of four weeks.
Vemurafenib-resistant LM36R human melanoma cells were inoculated (5.0×10^5 cells/mouse) into the right flank of athymic Nu/Nu nude male mice (Crl:NU-Foxn1^nu strain code 088)) n=5 per group, and progression of tumor was recorded using the volume model of length×(width)×0.52. Mice were split into four groups consisting of a control (empty HANP), free Tris DBA-Pd, HANP with Tris DBA-Pd, and HANP with Tris DBA-Pd and aIGF1R antibody. Free Tris DBA-Pd was first dissolved in DMSO and then mixed with Kolliphor EL™. At last, the mixture was diluted by H2O before injection at concentration of 1 mg/mL of DBA. The ratio of DMSO, Kolliphor EL™ and H2O was controlled as 1:2:7 (v/v). The treatments were administered through bi-weekly tail vein injections over the course of 4 weeks (5 mg of drug/kg per injection). Tumor samples were analyzed for CD44 (hyaluronate receptor) expression by immunohistochemistry.

[4] = general statement, water, cited from earlier work
melanoma = details: Clin Cancer Res. 2008, 14:5743-5748; cited from earlier work
[5] = molecular target: N-myristoyltransferase 1 (NMT1) (Homo sapiens, UniProt P30419); details: reported in the literature; cited from earlier work
N-myristoyltransferase 1 (NMT1), sequence (P30419 whole entry, species assumed): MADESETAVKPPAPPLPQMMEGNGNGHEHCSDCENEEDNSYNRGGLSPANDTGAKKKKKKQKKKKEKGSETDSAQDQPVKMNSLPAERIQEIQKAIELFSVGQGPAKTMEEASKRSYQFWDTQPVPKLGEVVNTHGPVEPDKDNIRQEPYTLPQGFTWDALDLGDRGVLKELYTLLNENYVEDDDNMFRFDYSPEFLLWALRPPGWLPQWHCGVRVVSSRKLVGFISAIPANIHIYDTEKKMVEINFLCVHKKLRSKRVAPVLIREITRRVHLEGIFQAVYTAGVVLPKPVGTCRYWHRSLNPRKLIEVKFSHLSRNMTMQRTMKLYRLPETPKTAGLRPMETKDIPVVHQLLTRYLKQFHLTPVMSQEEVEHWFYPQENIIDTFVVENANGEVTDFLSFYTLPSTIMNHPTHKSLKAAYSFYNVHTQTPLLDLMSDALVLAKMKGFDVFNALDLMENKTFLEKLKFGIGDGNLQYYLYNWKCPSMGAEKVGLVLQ

Question: Which “percent solubility in water by weight” value [1] does the source give for `CCCCCCCC` [octane] here?
Answer: 0.63×10^−4 % w/w

Question: For “Tris DBA-Pd HANPs coupled with anti-IGF1R antibodies: Tris DBA-Pd HANP with anti-IGF1R monoclonal antibodies (Dalotuzumab) conjugated onto the surface”, which “intensity of IGF1R staining” value (IGF1R) is on record?
Answer: decreased the intensity of IGF1R staining more so than the other groups

Question: What does the source list for `O=C(/C=C/c1ccccc1)/C=C/c1ccccc1.O=C(/C=C/c1ccccc1)/C=C/c1ccccc1.O=C(/C=C/c1ccccc1)/C=C/c1ccccc1.[Pd].[Pd]` [free Tris DBA-Pd, Tris(dibenzylideneacetone)dipalladium]?
Answer: SCG2 (secretogranin 2) expression (LM36R xenograft tumor): downregulated; behaviour in water, FBS, and cell culture media (precipitation / dispersion) [2]: immediately precipitated; inhibition of growth of LM36R tumors [3]: showed efficacy; solubility ([4]; listed as Tris (dibenzylideneacetone) dipalladium): poor solubility; solubility ([4]; listed as Tris DBA-Pd): Water-insoluble; effect on melanoma growth (melanoma): effective against melanoma growth; activity against NMT1 [5]: activity against the enzyme N-myristoyltransferase 1
